From PMC3710586 (NeuroImage, 2010)
“And” between values parts separate entries of the source, which are not always exact repeats. Identical values can stand only once. “Also recorded” adds a separate entry of the source. Like-named read-outs stand apart in the source and are kept apart here.

Key:
ATX plasma levels = format: in vivo, rhesus monkey
[1] = tested on: norepinephrine transporters (NET); conditions: rhesus monkeys, cited from earlier work
[2] = humans, ref Logan et al., 2007, cited from earlier work
[3] = rats; ref Mattiuz et al., 2003; Kielbasa et al., 2009; cited from earlier work
[4] = tested on: norepinephrine transporters (NET); conditions: humans, cited from earlier work
[5] = dogs; ref Mattiuz et al., 2003; cited from earlier work
[6] = humans; ref Sauer et al., 2003; cited from earlier work
[7] = target: norepinephrine transporters (NET) (Macaca mulatta, UniProt Q9MYW8)
[8] = target: norepinephrine transporters (Homo sapiens, UniProt P23975); conditions: read-out: MRB dissociation constant Kd, in vitro; ref Melloni et al., 1984; cited from earlier work
[9] = [11C]MRB plasma free fraction by ultrafiltration; format: in vitro ADME, rhesus monkey
[10] = [11C]MRB arterial input function and plasma metabolite analysis; format: in vivo, rhesus monkey; conditions: for Fraction of unmetabolized [11C]MRB in plasma: n=10
[11] = tested on: norepinephrine transporters (NET); conditions: for Global VND/fP estimate (four NET-rich regions): Eq. 5, shared across regions, rSE 22%
[12] = rhesus monkey, read-out: Percentage of occupancy of NET by ATX
[13] = ATX low dose, Day 2, MA1, one row per monkey
[14] = ATX medium dose, Day 1, MA1, one row per monkey
[15] = Baseline, Day 1, MA1, one row per monkey
[16] = after 40 mg of methylphenidate, n=9, ref Hannestad et al., 2010

Chain of norepinephrine transporters (NET) (Macaca mulatta, UniProt Q9MYW8) (Q9MYW8 1-617): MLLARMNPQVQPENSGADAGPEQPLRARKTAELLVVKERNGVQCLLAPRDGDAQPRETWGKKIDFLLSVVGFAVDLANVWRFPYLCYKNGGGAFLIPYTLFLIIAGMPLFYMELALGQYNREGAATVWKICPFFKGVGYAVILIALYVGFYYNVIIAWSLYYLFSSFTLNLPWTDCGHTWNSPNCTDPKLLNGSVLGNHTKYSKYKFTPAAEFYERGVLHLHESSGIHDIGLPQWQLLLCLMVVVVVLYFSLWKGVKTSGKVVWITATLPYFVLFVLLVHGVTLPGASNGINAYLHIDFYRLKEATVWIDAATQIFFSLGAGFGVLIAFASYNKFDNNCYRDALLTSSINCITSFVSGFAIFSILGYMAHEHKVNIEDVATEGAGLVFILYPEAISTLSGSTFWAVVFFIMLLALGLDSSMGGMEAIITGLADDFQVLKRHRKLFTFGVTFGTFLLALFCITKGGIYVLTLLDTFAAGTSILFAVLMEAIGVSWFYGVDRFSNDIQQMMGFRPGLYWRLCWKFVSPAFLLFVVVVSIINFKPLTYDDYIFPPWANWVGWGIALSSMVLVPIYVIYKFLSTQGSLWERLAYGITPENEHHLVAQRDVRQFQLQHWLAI
Chain of norepinephrine transporters (P23975 whole entry): as the sequence (Q9MYW8 1-617) above, with S15N, A19T, V246I, I410V, I427V, G452S, V606I counted along it

Compound: CNCC[C@@H](Oc1ccccc1C)c1ccccc1 [ATX, atomoxetine]
- Percent change per hour of ATX plasma level during the PET scan (ATX plasma levels; mono-exponential fit of 0-, 60-, 120-min samples): −1±6 %/h
- Slope of regression of ATX plasma level versus maintenance infusion rate (ATX plasma levels; r^2=0.902, n=7, intercept set to zero): 1.04 kg·h/L and 1.042 kg·h/L
- ATX IC50 in occupancy study using [18F]F-MeNER-D2 ([1]; plasma, ref Takano et al., 2009a): 0.016 µg/mL
- Plasma levels of ATX ([2]; 25 mg oral ATX): 116 ng/mL
- Plasma levels of ATX ([2]; 50 mg oral ATX): 206 ng/mL
- Plasma levels of ATX ([2]; 100 mg oral ATX): 421 ng/mL
- Plasma free fraction of ATX [3]: 11–13%
- Reduction of [11C]MRB average VT in the occipital cortex ([4]; after 100 mg of ATX, ref Logan et al., 2007): 10%
- Plasma free fraction of ATX [5]: 3%
- Plasma free fraction of ATX [6]: 1.3%
- IC50 ([7]; ATX IC50 using BPF, caudate as reference region, plasma concentration, rSE 16%): 74.4 nM
- Effect of ATX on [11C]MRB binding (VT/fP) in NET-rich regions ([7]; all monkeys, increasing ATX infusion doses): decreased in a dosedependent manner; also recorded: inhibited in a dose-dependent manner
- ATX occupancy estimate (Lassen plot) ([7]; monkey 1, high-dose scan): 86±13%
- ATX occupancy estimate (Lassen plot) ([7]; monkey 1, low-dose scan): 31±10%
- ATX occupancy estimate (Lassen plot) ([7]; monkey 1, medium-dose scan): 56±7%
- ATX occupancy estimate (Lassen plot) ([7]; monkey 2 (only medium-dose scan acquired)): 65±18%
- ATX occupancy estimate (Lassen plot) ([7]; monkey 3, high-dose scan): 82±6%
- ATX occupancy estimate (Lassen plot) ([7]; monkey 3, low-dose scan): 39±14%
- ATX occupancy estimate (Lassen plot) ([7]; monkey 3, medium-dose scan): 63±7%
- ED50 ([7]; rhesus monkey, read-out: ATX ED50, dose): 0.13 mg/kg
- receptor occupancy at 0.012 µg/mL [7, 12]: 27%
- receptor occupancy at 0.132 µg/mL [7, 12]: 80%

Compound: COc1ccccc1OC(c1ccccc1)C1CNCCO1 (centres unmarked) [MRB]
- Kd [8]: 2.5 nM

Compound: [11CH3]Oc1ccccc1O[C@@H](c1ccccc1)[C@@H]1CNCCO1 [[^11C]MRB, (S,S)-[^11C]methylreboxetine]
- Change of plasma free fraction fP from first to second scan of the day [9]: +17%±10
- Day-to-day variability of plasma free fraction fP ([9]; monkey #1): −16%
- Day-to-day variability of plasma free fraction fP ([9]; monkey #3): −68%
- Fraction of unmetabolized [11C]MRB in plasma ([10]; 20 min post-injection): 42±8%
- Fraction of unmetabolized [11C]MRB in plasma ([10]; 90 min post-injection): 25±4%
- Whole blood to plasma radioactivity concentration ratio ([10]; throughout the scans): 0.94±0.13
- Distribution Volume VT, Caudate [11, 13]: 6.2 mL/cm^3 and 2.1 mL/cm^3
- Distribution Volume VT, Midbrain [11, 13]: 9.0 mL/cm^3 and 3.0 mL/cm^3
- Distribution Volume VT, Putamen [11, 13]: 2.4 mL/cm^3 and 6.8 mL/cm^3
- Distribution Volume VT, Anterior Cingulate [11, 14]: 11.0 mL/cm^3 and 8.7 mL/cm^3 and 8.3 mL/cm^3
- Distribution Volume VT, Brainstem [11, 14]: 11.5 mL/cm^3 and 7.3 mL/cm^3 and 8.2 mL/cm^3
- Distribution Volume VT, Caudate [11, 14]: 8.7 mL/cm^3 and 6.5 mL/cm^3 and 6.3 mL/cm^3
- Distribution Volume VT, Midbrain [11, 14]: 10.1 mL/cm^3 and 7.5 mL/cm^3 and 7.8 mL/cm^3
- Distribution Volume VT, Occipital [11, 14]: 8.2 mL/cm^3 and 6.4 mL/cm^3 and 5.6 mL/cm^3
- Distribution Volume VT, Putamen [11, 14]: 7.2 mL/cm^3 and 9.9 mL/cm^3 and 8.7 mL/cm^3
- Distribution Volume VT, Thalamus [11, 14]: 11.6 mL/cm^3 and 8.2 mL/cm^3 and 8.5 mL/cm^3
- Distribution Volume VT, Anterior Cingulate [11, 15]: 13.3 mL/cm^3 and 10.1 mL/cm^3 and 10.9 mL/cm^3
- Distribution Volume VT, Brainstem [11, 15]: 16.3 mL/cm^3 and 10.2 mL/cm^3 and 11.1 mL/cm^3
- Distribution Volume VT, Midbrain [11, 15]: 13.3 mL/cm^3 and 10.5 mL/cm^3 and 9.4 mL/cm^3
- Distribution Volume VT, Occipital [11, 15]: 8.4 mL/cm^3 and 6.6 mL/cm^3 and 6.4 mL/cm^3
- Distribution Volume VT, Putamen [11, 15]: 6.3 mL/cm^3 and 8.9 mL/cm^3 and 6.6 mL/cm^3
- Distribution Volume VT, Thalamus [11, 15]: 15.5 mL/cm^3 and 10.7 mL/cm^3 and 12.7 mL/cm^3
- Distribution Volume VT, Caudate ([11]; Baseline, Day 1, MA1 t*=30 min, one row per monkey #1-#3): 7.7 mL/cm^3 and 6.5 mL/cm^3 and 5.9 mL/cm^3
- VND/fP in the putamen ([11]; Bmax/Kd set to zero): 30 mL/cm^3
- Global VND/fP estimate (four NET-rich regions) [11]: 19±4 mL/cm^3
- Global VND/fP estimate (four NET-rich regions) ([11]; listed as [^11C] MRB): 19 mL/cm^3
- VND/fP estimate (four high binding regions plus occipital cortex) ([11]; Eq. 5, rSE 15%): 19± 3 mL/cm^3
- Binding potential BPND in the thalamus ([11]; baseline VT/fP divided by global VND/fP, minus one, n=3): 1.8±0.3
- Expected value of BPND in the thalamus ([11]; computed from in vitro Kd 2.5 nM, NET density 23–72 nM and fND): 0.46–1.44
- Tissue free fraction fND ([11]; fND=fP/VND, from VND/fP 19 mL/cm^3): ~5%
- VT/fP after blockade by the highest dose of ATX, anterior cingulate cortex ([11]; n=2, unit not given): 24±3
- VT/fP after blockade by the highest dose of ATX, brainstem ([11]; n=2, unit not given): 24±1
- VT/fP after blockade by the highest dose of ATX, midbrain ([11]; n=2, unit not given): 23±1
- VT/fP after blockade by the highest dose of ATX, thalamus ([11]; n=2, unit not given): 26±3
- Normalized distribution volume VT/fP at baseline, caudate nucleus ([11]; n=3): 28±3 mL/cm^3
- Normalized distribution volume VT/fP at baseline, occipital cortex ([11]; n=3): 30±2 mL/cm^3
- Normalized distribution volume VT/fP at baseline, putamen ([11]; n=3): 30±2 mL/cm^3
- Specific binding in the NET-poor regions (caudate, putamen and occipital) ([11]; or a higher non-specific binding): ≤ 30%

Compound: [2H]C([2H])([18F])Oc1ccccc1O[C@@H](c1ccccc1)[C@H]1CNCCO1 [[^18F]MeNER-D2]
- BPND in the thalamus ([1]; ref Seneca et al., 2006): 0.26±0.06
- BPND in the thalamus ([1]; ref Takano et al., 2009a,b): 0.7±0.1

Compound: COC(=O)C(c1ccccc1)C1CCCCN1 (centres unmarked) [methylphenidate]
- Reduction of [11C]MRB VT in the occipital cortex [4, 16]: 9±17%
- Reduction of [11C]MRB VT/fP in the occipital cortex [4, 16]: 5±15%
